In US4450269A, “Mono-5-substituted-3-chloro-4H-1,2,6-thiadiazin-4-one antifungal agents” (FMC Corporation, priority 1980, dated 1984):
Where a name gives a salt, the structure may show the parent alone. Read-outs that look alike come from different tables or passages of the source.

Key:
[1] = test system: Pyricularia oryzae; assay: microbe, parasite or virus in culture; format: cell-based; settings: for Percent Fungus Growth Inhibition: PO, 72 hours, hydrochloride; for inhibition at 5 ppm / inhibition at 10 ppm / inhibition at 20 ppm / inhibition at 40 ppm: Pyricularia oryzae, 72 h; for inhibition at 5 ppm: read-out: Percent Fungus Growth Inhibition, PO, 5 ppm, 72 hours; for inhibition at 10 ppm: read-out: Percent Fungus Growth Inhibition, PO, 10 ppm, 72 hours; for inhibition at 20 ppm: read-out: Percent Fungus Growth Inhibition, PO, 20 ppm, 72 hours; for inhibition at 40 ppm: read-out: Percent Fungus Growth Inhibition, PO, 40 ppm, 72 hours
[2] = test system: Phytophthora infestans; format: cell-based; settings: PI, 48 hours

Row | SMILES | Percent Fungus Growth Inhibition ([1]; 5 ppm) | Percent Fungus Growth Inhibition ([1]; 10 ppm) | Percent Fungus Growth Inhibition ([1]; 20 ppm) | Percent Fungus Growth Inhibition ([1]; 40 ppm) | Spore Germination Rating ([2]; 2.5 ppm, hydrochloride) | inhibition at 5 ppm [1] | inhibition at 10 ppm [1] | inhibition at 20 ppm [1] | inhibition at 40 ppm [1] | Spore Germination Rating ([2]; 1.0 ppm) | Spore Germination Rating ([2]; 2.5 ppm) | Spore Germination Rating ([2]; 10 ppm) | Spore Germination Rating ([2]; 40 ppm)
1 | Nc1ccc(Oc2nsnc(Cl)c2=O)cc1 [Compound 27, 5-(4-aminophenoxy)-3-chloro-4H--1,2,6-thiadiazine-4-one hydrochloride] | 24% | 24% | 0% | 81% | 3 (60-80) | – | – | – | – | – | – | – | –
2 | CNC(=O)Nc1ccc(Oc2nsnc(Cl)c2=O)cc1 [Compound 28, 3-chloro-5-[4-(3-methylureido)-phenoxy]-4H--1,2,6-thiadiazin-4-one] | – | – | – | – | – | 24% | 24% | 52% | 90% | 4 (80-100) | 4 (80-100) | 4 (80-100) | 2 (40-60)
3 | O=C(Nc1ccccc1)Nc1ccc(Oc2nsnc(Cl)c2=O)cc1 [Compound 29, 3-chloro-5-[4-(3-phenylureido)-phenoxy]-4H--1,2,6-thiadiazin-4-one] | – | – | – | – | – | 19% | 14% | 0% | 0% | 4 (80-100) | 4 (80-100) | 4 (80-100) | 3 (60-80)
4 | O=c1c(Cl)nsnc1Oc1c(Cl)cc(Cl)cc1Cl [Compound 30, 3-chloro-5-(2,4,6-trichlorophenoxy)-4H--1,2,6-thiadiazin-4-one] | – | – | – | – | – | 10% | 71% | 84% | 90% | 4 (80-100) | 1 (10-40) | 0 (0-10) | 0 (0-10)
5 | O=c1c(Cl)nsnc1Oc1c(Cl)c(Cl)c(Cl)c(Cl)c1Cl [Compound 31, 3-chloro-5-(pentachlorophenoxy)-4H--1,2,6-thiadiazine-4-one] | – | – | – | – | – | 33% | 48% | 62% | 57% | 4 (80-100) | 3 (60-80) | 2 (40-60) | 2 (40-60)
6 | O=c1c(Cl)nsnc1Oc1cccc2ccccc12 [Compound 32, 3-chloro-5(1-naphthoxy)-4H-1,2,6-thiadiazin-4-one] | – | – | – | – | – | 67% | 78% | 100% | 89% | 3 (60-80) | 1 (10-40) | 0 (0-10) | 0 (0-10)
7 | O=c1c(Cl)nsnc1Oc1ccccc1Br [Compound 34, 3-chloro-5-(2-bromophenoxy)-4H-1,2,6,-thiadiazin-4-one] | – | – | – | – | – | 38% | 65% | 100% | 100% | 4 (80-100) | 1 (10-40) | 0 (0-10) | 0 (0-10)
8 | O=c1c(Cl)nsnc1Oc1ccc(O)cc1 [Compound 35, 3-chloro-5-(4-hydroxyphenoxy)-4H-1,2,6-thiadiazin-4-one] | – | – | – | – | – | 23% | 38% | 100% | 100% | 4 (80-100) | 0 (0-10) | 0 (0-10) | 0 (0-10)
9 | O=C(Nc1ccccc1)Oc1ccc(Oc2nsnc(Cl)c2=O)cc1 [Compound 37, 3-chloro-5-[4-(phenylaminocarbonyloxy)phenoxy]-4H-1,2,6,-thiadiazin-4-one] | – | – | – | – | – | 44% | 44% | 61% | 61% | 4 (80-100) | 4 (80-100) | 4 (80-100) | 4 (80-100)
10 | O=C(OCc1ccccc1)Oc1ccc(Oc2nsnc(Cl)c2=O)cc1 [Compound 38, 3-chloro-5-[4-(phenylmethoxycarbonyloxy)phenoxyl]-4H-1,2,6-thiadiazin-4-one] | – | – | – | – | – | 8% | 15% | 23% | 46% | 4 (80-100) | 4 (80-100) | 4 (80-100) | 3 (60-80)
11 | C[S+]([O-])c1ccc(Oc2nsnc(Cl)c2=O)cc1 (centres unmarked) [Compound 40, 3-chloro-5-[(4-methylsulfinyl)phenoxy]-4H-1,2,6,-thiadiazin-4-one] | – | – | – | – | – | 33% | 47% | 42% | 89% | 4 (80-100) | 3 (60-80) | 2 (40-60) | 0 (0-10)
12 | CC(=O)Nc1cccc(Oc2nsnc(Cl)c2=O)c1 [Compound 42, 3-[(3-N--acetylamino)-phenoxy]-5-chloro-4H--1,2,6-thiadiazin-4-one] | – | – | – | – | – | 7% | 11% | 32% | 68% | 4 (80-100) | 4 (80-100) | 3 (60-80) | 0 (0-10)
13 | CC(=O)Nc1ccccc1Oc1nsnc(Cl)c1=O [Compound 43, 3-[(2-acetylamino)-phenoxy]-5-chloro-4H--1,2,6-thiadiazin-4-one] | – | – | – | – | – | 13% | 18% | 24% | 24% | 4 (80-100) | 4 (80-100) | 4 (80-100) | 2 (40-60)
14 | O=c1c(Cl)nsnc1Oc1cccc(C(F)(F)F)c1 [Compound 44, 3-chloro-5-[(3-trifluoromethyl)phenoxy]-4H--1,2,6-thiadiazin-4-one] | – | – | – | – | – | 54% | 71% | 93% | 100% | 2 (40-60) | 0 (0-10) | 0 (0-10) | 0 (0-10)
15 | O=C(O)Cc1ccccc1Oc1nsnc(Cl)c1=O [Compound 45, 3-(2-carboxymethylphenoxy)-5-chloro-4H--1,2,6-thiadiazin-4-one] | – | – | – | – | – | 0% | 0% | 0% | 11% | 4 (80-100) | 4 (80-100) | 0 (0-10) | 0 (0-10)
16 | N#CCc1ccc(Oc2nsnc(Cl)c2=O)cc1 [Compound 46, 3-chloro-5-[(4-cyanomethyl)-phenoxy]4H--1,2,6-thiadiazin-4-one] | – | – | – | – | – | 38% | 77% | 100% | 100% | 4 (80-100) | 1 (10-40) | 1 (10-40) | 0 (0-10)
17 | CC(=O)c1ccc(Oc2nsnc(Cl)c2=O)cc1 [Compound 47, 3-(4-acetylphenoxy)-5-chloro-4H--1,2,6-thiadiazin-4-one] | – | – | – | – | – | 78% | 78% | 100% | 89% | 0 (0-10) | 0 (0-10) | 0 (0-10) | 0 (0-10)
18 | CC(=O)c1cccc(Oc2nsnc(Cl)c2=O)c1 [Compound 48, 3-(3-acetylphenoxy)-5-chloro-4H--1,2,6-thiadiazin-4-one] | – | – | – | – | – | 56% | 67% | 100% | 100% | 0 (0-10) | 0 (0-10) | 0 (0-10) | 0 (0-10)
19 | CC(=O)c1ccccc1Oc1nsnc(Cl)c1=O [Compound 49, 3-(2-acetylphenoxy)-5-chloro-4H--1,2,6-thiadiazin-4-one] | – | – | – | – | – | 29% | 38% | 53% | 74% | 3 (60-80) | 1 (10-40) | 1 (10-40) | 1 (10-40)
